Source: patent publication US8242087B2, “Phosphate modified nucleosides useful as substrates for polymerases and as antiviral agents” (priority 2007, dated 2012)

Experiments:
KF (exo−) DNA polymerase = biological target: T1, KF (exo−) DNA polymerase (Escherichia coli, UniProt P00582, D355A/E357A); test: Single nucleotide incorporation by KF (exo−) DNA polymerase; format: biochemical; conditions: 60 minutes
T1 construct: Klenow Fragment (KF) (exo^−) DNA polymerase
Protocol: (§1) Reaction conditions: Primer (P1) was 5′-labeled with ^33P followed by annealing to a template T1; 125 nM primer/template (P1/T1), [Taq]=0.005 U/μL, [Vent]=0.005 U/μL, [KF]=0.05 U/μL; time intervals: 5, 15, 30, 60, 90 and 120 minutes.

[1] = biological target: T2, Therminator DNA polymerase (Thermococcus sp., UniProt Q56366, A485L/D141A/E143A); test: Single nucleotide incorporation by Therminator DNA polymerase; format: biochemical, (9° N-7) Thermococcus sp.
T2 construct: purchased Westburg (NEB)
Protocol: (§2) In the case of Therminator DNA polymerase, the enzyme was obtained from Westburg (NEB) (2 U/μL) and the reactions were carried out in a 10× Thermopol reaction buffer containing 20 mM TRIS.HCl, 10 mM KCl, 2 mM MgSO4, 0.1% Triton X-100, pH 8.8. The final concentration of the Therminator DNA pol in the reaction mixture was 8.33×10^−4 U/μL. The polymerase reaction involving Therminator DNA polymerase or any other thermostable polymerase (Vent (exo^−), Taq DNA polymerase) was carried out in a similar way as the HIV RT reaction with some modifications. The dNTP solutions and the primer/template/DNA polymerase mixture solutions were topped with mineral oil (30-60 μL) and pre-incubated at 70° C. for 2 minutes. The polymerase reactions were performed at 70° C. as well.

HIV RT = biological target: T3, HIV RT (Human immunodeficiency virus type 1 group M subtype B, UniProt P03366); test: Primer extension by HIV RT (P1/T3, P1/T5); format: biochemical, HIV-1; conditions: T3 template
T3 construct: HIV RT polymerase was purchased from GE Healthcare; purchased GE Healthcare (Amersham Bioscience)
Protocol: A typical single nucleotide incorporation and primer extension assays using HIV RT polymerase was carried out similar to one described in the literature. HIV RT polymerase was purchased from GE Healthcare and was supplied as either 12 or 30 U/μL stock solution. The final concentration of HIV RT in a reaction mixture was 0.03-0.003 U/μL. A primer/template duplex mixture was prepared by combining appropriate amounts of a 5′-^33P-labeled primer (P1) and a template in 1:2 molar ratio to provide a 4× solution with 0.5 μM primer concentration. The polymerase reactions were carried out in a 5×RT buffer containing 250 mM TRIS.HCL, 250 mM KCl, 50 mM MgCl2, 2.5 mM spermidine, 50 mM DTT, pH 8.3. For the single nucleotide incorporation assay, a P1/T1 primer-template pair was used whereas the primer extension study was performed with P1/T3 and P1/T5 primer-template pairs.
Primer extension study with HIV RT and Therminator DNA polymerase was performed in a fashion similar to the single nucleotide incorporation experiments. Two sets of primer/template complexes were used: P1/T3 and P1/T5.

[2] = biological target: T4, HIV reverse transcriptase (Human immunodeficiency virus type 1 group M subtype B, UniProt P03366); test: Gel-based single-nucleotide-incorporation and control assays with HIV RT (Example 4); format: biochemical, HIV-1; conditions: P1/T2; 9 incorporated first (two hours), then compound 1 added, two more hours
T4 construct: performed for the enzyme HIV reverse transcriptase (GE Healthcare, 30 U/4 stock solution); purchased GE Healthcare

[3] = biological target: Vent (exo−) DNA polymerase (Thermococcus litoralis, UniProt P30317, D141A/DEL1082-1471/DEL495-1032/E143A); test: Single nucleotide incorporation by Vent (exo−) DNA polymerase; format: biochemical
Protocol: as §1, §2

Taq DNA polymerase = Taq DNA polymerase (Thermus aquaticus, UniProt P19821); test: Single nucleotide incorporation by Taq DNA polymerase; format: biochemical
Protocol: as §1, §2

[4] = biological target: T4, HIV reverse transcriptase; test: Gel-based single-nucleotide-incorporation and control assays with HIV RT (Example 4); format: biochemical, HIV-1
Protocol: End-labeled primers were annealed to their template by combining primer and templates in a molar ratio of 1:2 and heating the mixture to 70° C. for 10 minutes, followed by slow cooling to room temperature over a period of 2.5 hours. For the incorporation of L-Asp-dGMP (9), L-Asp-dTMP (10), L-Asp-dCMP (11), and N-Me-Asp-dAMP (12) (see FIG. 13), the primer P1 was annealed to templates T1, T2, T4 or A and P2 was annealed to T4. A series of 20 μL reactions was performed for the enzyme HIV reverse transcriptase (GE Healthcare, 30 U/4 stock solution). The final mixture contained 125 nM primer-template complex, RT buffer (250 mM TrisHCl, 250 mM KCl, 50 mM MgCl2, 2.5 mM spermidine, 50 mM DTT, pH 8.3), 0.03 U/μL HIV RT and different amino acid phosphoramidates building blocks concentrations. In the control reaction with the natural nucleotide, 10 μM or 50 μM dGTP, dTTP, dATP or dCTP were used. The mixture was incubated at 37° C. […] and aliquots were quenched after 5, 10, 20, 30, 60 and 120 minutes respectively.
All polymerase reactions (3 μL) were quenched by the addition of 10 μL of loading buffer (90% formamide, 0.05% bromophenol blue, 0.05% xylene cyanol and 50 mM EDTA). Samples were heated at 70° C. for 5 minutes prior to analysis by electrophoresis for 2-3 hours at 2000 V on a 0.4 mm 20% denaturing gel in the presence of a 100 mM Tris-borate, 2.5 mM EDTA buffer, pH 8.3. Products were visualized by phosphor imaging. The amount of radioactivity in the bands corresponding to the products of enzymatic reactions was determined by using the Optiquant image analysis software (Perkin Elmer).

T2 sequence (Q56366 whole entry D141A/E143A/A485L): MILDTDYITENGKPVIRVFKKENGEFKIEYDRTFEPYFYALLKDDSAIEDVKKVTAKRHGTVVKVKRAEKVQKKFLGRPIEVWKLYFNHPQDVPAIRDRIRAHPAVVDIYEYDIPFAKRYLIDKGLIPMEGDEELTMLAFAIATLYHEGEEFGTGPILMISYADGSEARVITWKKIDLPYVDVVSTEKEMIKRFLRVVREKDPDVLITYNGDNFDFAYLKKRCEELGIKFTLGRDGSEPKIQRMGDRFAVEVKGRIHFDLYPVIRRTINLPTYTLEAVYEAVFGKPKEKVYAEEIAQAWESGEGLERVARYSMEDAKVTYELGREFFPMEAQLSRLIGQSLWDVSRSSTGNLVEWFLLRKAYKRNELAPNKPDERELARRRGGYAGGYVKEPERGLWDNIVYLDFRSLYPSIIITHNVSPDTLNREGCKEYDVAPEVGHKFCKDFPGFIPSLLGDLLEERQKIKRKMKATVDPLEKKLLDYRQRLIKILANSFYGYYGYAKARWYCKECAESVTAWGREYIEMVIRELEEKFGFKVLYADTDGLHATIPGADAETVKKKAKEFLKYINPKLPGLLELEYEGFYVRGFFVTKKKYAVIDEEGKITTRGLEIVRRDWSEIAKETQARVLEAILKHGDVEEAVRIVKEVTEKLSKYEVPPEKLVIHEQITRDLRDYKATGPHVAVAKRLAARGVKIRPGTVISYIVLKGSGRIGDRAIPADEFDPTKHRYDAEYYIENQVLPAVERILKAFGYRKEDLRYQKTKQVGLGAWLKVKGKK
T1 sequence (P00582 324-928 D355A/E357A): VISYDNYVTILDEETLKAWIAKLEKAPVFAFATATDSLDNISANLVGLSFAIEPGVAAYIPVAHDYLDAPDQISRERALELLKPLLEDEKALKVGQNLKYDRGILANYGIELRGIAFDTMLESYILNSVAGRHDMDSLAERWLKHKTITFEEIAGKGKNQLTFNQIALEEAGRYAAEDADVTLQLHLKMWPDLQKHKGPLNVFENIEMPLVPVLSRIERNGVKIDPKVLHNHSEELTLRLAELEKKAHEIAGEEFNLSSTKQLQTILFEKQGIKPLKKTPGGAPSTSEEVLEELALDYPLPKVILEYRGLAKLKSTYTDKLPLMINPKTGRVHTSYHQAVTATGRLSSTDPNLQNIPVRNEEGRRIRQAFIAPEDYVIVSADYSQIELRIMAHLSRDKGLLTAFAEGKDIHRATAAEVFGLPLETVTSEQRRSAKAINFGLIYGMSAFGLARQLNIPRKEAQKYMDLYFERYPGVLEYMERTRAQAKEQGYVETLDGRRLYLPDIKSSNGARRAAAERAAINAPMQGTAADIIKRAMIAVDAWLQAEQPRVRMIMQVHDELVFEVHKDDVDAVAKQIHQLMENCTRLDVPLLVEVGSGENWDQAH
Vent (exo−) DNA polymerase, sequence (P30317 other isoform, or with tags, fused parts or gaps D141A/E143A/DEL495-1032/DEL1082-1471): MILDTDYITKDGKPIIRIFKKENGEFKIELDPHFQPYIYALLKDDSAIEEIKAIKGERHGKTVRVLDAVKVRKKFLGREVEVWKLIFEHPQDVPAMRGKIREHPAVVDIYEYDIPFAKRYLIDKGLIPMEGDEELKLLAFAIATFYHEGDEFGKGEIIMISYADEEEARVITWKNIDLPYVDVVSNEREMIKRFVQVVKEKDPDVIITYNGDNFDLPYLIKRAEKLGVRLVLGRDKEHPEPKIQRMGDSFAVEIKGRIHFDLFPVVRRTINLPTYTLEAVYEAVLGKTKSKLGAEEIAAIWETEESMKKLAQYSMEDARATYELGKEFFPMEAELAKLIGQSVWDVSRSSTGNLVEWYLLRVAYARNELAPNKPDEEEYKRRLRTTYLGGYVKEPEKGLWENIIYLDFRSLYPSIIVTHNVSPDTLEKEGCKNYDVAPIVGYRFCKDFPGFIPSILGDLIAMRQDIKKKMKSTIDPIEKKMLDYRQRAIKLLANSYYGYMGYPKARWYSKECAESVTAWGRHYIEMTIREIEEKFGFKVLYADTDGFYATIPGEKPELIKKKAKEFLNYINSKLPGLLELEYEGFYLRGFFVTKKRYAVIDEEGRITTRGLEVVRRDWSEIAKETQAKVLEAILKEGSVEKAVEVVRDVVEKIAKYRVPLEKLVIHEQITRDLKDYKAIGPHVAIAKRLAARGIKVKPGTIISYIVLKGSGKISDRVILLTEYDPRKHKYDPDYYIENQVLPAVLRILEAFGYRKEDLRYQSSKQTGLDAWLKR
Taq DNA polymerase, sequence (P19821 whole entry): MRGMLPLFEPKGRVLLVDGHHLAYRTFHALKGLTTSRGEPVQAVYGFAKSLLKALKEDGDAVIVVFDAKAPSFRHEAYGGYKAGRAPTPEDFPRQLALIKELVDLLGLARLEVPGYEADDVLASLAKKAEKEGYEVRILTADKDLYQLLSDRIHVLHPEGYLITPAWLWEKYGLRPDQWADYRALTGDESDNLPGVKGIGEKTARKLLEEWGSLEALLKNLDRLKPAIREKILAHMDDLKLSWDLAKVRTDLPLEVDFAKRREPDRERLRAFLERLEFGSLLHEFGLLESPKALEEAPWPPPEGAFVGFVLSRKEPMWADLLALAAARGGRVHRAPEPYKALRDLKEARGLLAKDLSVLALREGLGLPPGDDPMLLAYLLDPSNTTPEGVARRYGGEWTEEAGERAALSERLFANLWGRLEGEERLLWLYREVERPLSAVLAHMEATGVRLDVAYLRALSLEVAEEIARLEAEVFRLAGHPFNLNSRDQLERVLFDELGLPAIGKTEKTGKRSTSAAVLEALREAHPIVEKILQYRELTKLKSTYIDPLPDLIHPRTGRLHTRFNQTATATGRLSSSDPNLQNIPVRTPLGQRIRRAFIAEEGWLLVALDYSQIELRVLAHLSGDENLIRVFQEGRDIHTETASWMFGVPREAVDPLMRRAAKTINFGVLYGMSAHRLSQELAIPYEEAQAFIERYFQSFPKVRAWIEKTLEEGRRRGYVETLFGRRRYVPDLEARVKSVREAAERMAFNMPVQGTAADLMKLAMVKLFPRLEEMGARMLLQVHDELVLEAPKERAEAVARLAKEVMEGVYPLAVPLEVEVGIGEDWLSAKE

2′-deoxy-adenosine-5′-aspartyl-phosphoramidate [Compound 1]
conversion of the primer strand (KF (exo−) DNA polymerase): 32.5%
primer extension ([1]; 60 min, 500 μM nucleoside concentration): 25.2%
incorporation as Therminator DNA polymerase substrate ([1]; single nucleotide incorporation, P1/T1): act effectively as alternative substrates
primer extension product (HIV RT): extend a primer with three adenine nucleobases (n+3 product)
(n+3) product (HIV RT; 60 minutes, 500 μM substrate): 5.2%
n+2 product (HIV RT; 60 minutes, 500 μM substrate): 56.3%
n+1 product [2]: 20%
n+2 product [2]: 80%
insertion into a growing primer strand [3]: failed to insert
insertion into a growing primer strand (Taq DNA polymerase): failed to insert
base-pairing selectivity of incorporation ([4]; P1/T1): inserted selectively against thymine
incorporation with blunt ended duplex ([4]; primer P1, template A): none of these compounds incorporated at all
